Measurements as given in US20070037736A1, “Therapeutic composition comprising the KAL protein and use of the KAL protein for the treatment of retinal, renal, neuronal and neural injury” (INSTITUT PASTEUR, priority 1997, published 2007).

Columns and labels:
Assay type in all cases: cell-based, rat
[1] = tested on: PC12 cells; assay: Adhesion and inhibition assay, colorimetric; conditions: data not shown
Experimental: (§1) Adhesion assays were performed as described in (à compléter) with some modifications. Coating with the various molecules, at the indicated concentrations in 0.5 ml PBS, was performed in plastic 24-well multidishes (Nunclon™) at 37° C. (1 h or overnight).The cells were then washed three times with PBS, coating blocked with 1% heat-inactivated BSA (à compléter) for at least 1 h at 37° C., followed by three PBS washes, before addition of the cells (10^6 cells per ml in serum-free medium containing 0.1% heat-inactivated BSA). In standard experiments, purified KAL was applied at 3 μg/ml. Other substrates were used as control, fibronectin ([…]) and poly-L-lysine (100 μg/ml).
(§2) Cells were incubated for 30 min to 1 h on coated wells. Medium was then aspirated and unbound cells removed by one wash with PBS. The adherent cells were fixed with […] paraformaldehyde (PFA) in PBS and stained with 0.1% crystal violet. Quantification of the attached cells was performed using a colorimetric method (à compléter). Data are expressed as the percentage of adherent cells on each tested substrate with reference to poly-L-lysine. Assays in triplicate were repeated in three independent experiments.
Cells were incubated for 5 min at room temperature in HBSS containing 5 mM EDTA, washed once with HBSS and preincubated for 1 h at 4° C. in HBSS containing 0.1% BSA in the absence or in the presence of Ca^++ and/or Mg^++ prior plating.
Heparin, heparan sulfate or chondroitin sulfate (up to 1 mg/ml in PBS) was added in KAL-coated-BSA-saturated wells, and allowed to interact for 2 h at 37° C. After three washings with PBS, CHO-K1or PC12 cells were plated, and incubated as usual.
A 32 aminoacid peptide (32R1-FIG. 24) was synthesized (Syntiem laboratory). Control peptides were C17 (NH2CSLVPTKKKRRKTTDGF-COON) (SEQ ID NO:7) derived from the second fibronectin type III repeat of human KAL and C 16V (NHzCGSYANNNRYGRDPPTSV-000H), (SEQ ID NO:8) derived from the EYA1 protein (a completer). The peptides, at various concentrations (10 to 30 μg/ml), were directly adsorbed on polystyrene microtiter wells (Immulon 4, Nunc). […]

[2] = tested on: olfactory neurons (line 24); assay: Adhesion and peptide/serum inhibition assay, colorimetric; conditions: for percentage of olfactory neurons (line 24) adherent on substrate: substrate coated to microtiter wells
Experimental: as §1, §2
A 32 aminoacid peptide (32R1-FIG. 24) was synthesized (Syntiem laboratory). Control peptides were C17 (NH2CSLVPTKKKRRKTTDGF-COON) (SEQ ID NO:7) derived from the second fibronectin type III repeat of human KAL and C 16V (NHzCGSYANNNRYGRDPPTSV-000H), (SEQ ID NO:8) derived from the EYA1 protein (a completer). The peptides, at various concentrations (10 to 30 μg/ml), were directly adsorbed on polystyrene microtiter wells (Immulon 4, Nunc). Adhesion assays were performed as described above.
In peptide inhibition assays, cells were preincubated with the peptides at different concentrations (10 to 100 μg/ml) for 1 h at 4° C., then plated to KAL-coated wells, and incubated for a further 30 min period of time.

[3] = tested on: olfactory neurons (line 24); assay: Spreading and neurite growth on coated substrates; conditions: mean ± SEM
Experimental: FIG. 28: Mean neurite length on the different substrates after one hour, two hours and eight hours in vitro. Mean value±SEM. More than 100 neurons were analyzed in each experimental condition.
Cells, in serum-free medium containing 0.1% heat inactivated BSA were seeded on KAL- or laminin-coated wells, and maintained for 20 min to 22 h at 37° C. Adherent cells were fixed, stained with toluidine blue, and photographied with an inverted microscope.

Molecule: O=C(O)CN(CCN(CC(=O)O)CC(=O)O)CC(=O)O [EDTA]
- effect of chelating Ca++ and Mg++ on adhesion of PC12 cells to KAL ([1]; cells incubated with EDTA for 5 minutes prior plating): did not modified the amount of adhering cells

Molecule: NH2CSLVPTKKKRRKTTDGF-COON [17R2, reference compound]
- effect of preincubation with peptide on adhesion to KAL ([2]; 50 μM): had no effect
- percentage of olfactory neurons (line 24) adherent on substrate [2]: no adhesion

Molecule: NHz-RPSRWYQFRVAAVNVHGTRGFTAPSKHFRSSK-000H [32R1]
- effect of preincubation with peptide on adhesion to fibronectin and laminin substrates [2]: had no effect
- concentration of peptide giving complete inhibition of adhesion to KAL substrate ([2]; cells preincubated with peptide): 26 µM
- percentage of olfactory neurons (line 24) adherent on substrate [2]: 80%
- adhesion of PC12 cells on peptide substrate ([1]; compared with olfactory neurons): same results
- mean neurite length per olfactory neuron ([3]; eight hours after plating): 63 (±2) μm
- mean neurite length per olfactory neuron ([3]; one hour on substrate): 32 (±4) μm

Molecule: NHzCGSYANNNRYGRDPPTSV-000H [C16V, reference compound]
- percentage of olfactory neurons (line 24) adherent on substrate [2]: no adhesion
